Assay results published in ChEMBL document CHEMBL1201862, “PubChem BioAssay data set” (2004).
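A five-concentration, 48-hour dose response in 96-well plates underlies each endpoint, interpolated linearly between surrounding concentrations. GI50 is the concentration that inhibits growth by half.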 Active and inactive are the calls of the source. Rule as the data show it: active = GI50 up to about 1.1 µM and inactive = higher.

What was measured:
Assay in all cases: NCI-60 cell line screen, 48 h
T47D = tested on: T47D
BT-549 = tested on: BT-549
ACHN = tested on: ACHN
COLO 205 = tested on: COLO 205
CCRF-CEM = tested on: CCRF-CEM
SNB-19 = tested on: SNB-19
U-251 = tested on: U-251
MDA-MB-435 = tested on: MDA-MB-435
IGROV-1 = tested on: IGROV-1
EKVX = tested on: EKVX
SK-MEL-2 = tested on: SK-MEL-2
OVCAR-5 = tested on: OVCAR-5
M14 = tested on: M14
MCF7 = tested on: MCF7
NCI-H226 = tested on: NCI-H226
HL-60 = tested on: HL-60
SF-268 = tested on: SF-268
NCI-H522 = tested on: NCI-H522
SK-OV-3 = tested on: SK-OV-3
SR = tested on: SR

Compound	GI50 (T47D)	GI50 (BT-549)	GI50 (ACHN)	GI50 (COLO 205)	GI50 (CCRF-CEM)	GI50 (SNB-19)	GI50 (U-251)	GI50 (MDA-MB-435)	GI50 (IGROV-1)	GI50 (EKVX)	GI50 (SK-MEL-2)	GI50 (OVCAR-5)	GI50 (M14)	GI50 (MCF7)	GI50 (NCI-H226)	GI50 (HL-60)	GI50 (SF-268)	GI50 (NCI-H522)	GI50 (SK-OV-3)	GI50 (SR)
CCOC(=O)CO/N=C\C1=CC(=O)C2CC1C2(C)C (stereo not drawn)	> 100 µM (inactive)	> 100 µM (inactive)	> 100 µM (inactive)	> 100 µM (inactive)	> 100 µM (inactive)	> 100 µM (inactive)	> 100 µM (inactive)	> 100 µM (inactive)	> 100 µM (inactive)	> 100 µM (inactive)	> 100 µM (inactive)	> 100 µM (inactive)	> 100 µM (inactive)	> 100 µM (inactive)	> 100 µM (inactive)	> 100 µM (inactive)	> 100 µM (inactive)			
O=C(O)C1CC(c2ccccc2)=NN1c1ccccc1 (stereo not drawn)	52 µM (inactive)	66.5 µM (inactive)	91.6 µM (inactive)	50.9 µM (inactive)	48.4 µM (inactive)	> 100 µM (inactive)	62.1 µM (inactive)	63.4 µM (inactive)	> 100 µM (inactive)	24 µM (inactive)	69.5 µM (inactive)	> 100 µM (inactive)	75 µM (inactive)	48 µM (inactive)	36.8 µM (inactive)	89.7 µM (inactive)	81.1 µM (inactive)	27.4 µM (inactive)	> 100 µM (inactive)	
COc1cc2c(c(O)c1OC)CC1CCC(=O)N1C2c1cccc2ccccc12 (stereo not drawn)	18.9 µM (inactive)	22.3 µM (inactive)	29.3 µM (inactive)	15.6 µM (inactive)	30.8 µM (inactive)	15.6 µM (inactive)	19.8 µM (inactive)	19.2 µM (inactive)	24 µM (inactive)	22.3 µM (inactive)	17.5 µM (inactive)	19.1 µM (inactive)	17.4 µM (inactive)	30.9 µM (inactive)		0.813 µM (active)	25.1 µM (inactive)	20.3 µM (inactive)	18.9 µM (inactive)	> 100 µM (inactive)
C/C(=N\[N+](C)(C)C)c1ccc(C)c(C)c1	> 100 µM (inactive)	58.3 µM (inactive)	> 10 µM (inactive)	14.6 µM (inactive)	35.4 µM (inactive)	42.9 µM (inactive)	39.4 µM (inactive)	96.4 µM (inactive)	> 100 µM (inactive)	7.5 µM (inactive)	> 100 µM (inactive)	42.4 µM (inactive)	> 10 µM (inactive)	> 10 µM (inactive)		82.2 µM (inactive)	> 10 µM (inactive)	49.1 µM (inactive)	77.6 µM (inactive)	82.6 µM (inactive)
COc1ccc(/C=C2/S/C(=N\c3ccccc3)N(NC(=O)Cc3ccccc3)C2=O)cc1	> 100 µM (inactive)	> 100 µM (inactive)	> 100 µM (inactive)	> 100 µM (inactive)	> 100 µM (inactive)	> 100 µM (inactive)	> 100 µM (inactive)	> 100 µM (inactive)	> 100 µM (inactive)	> 100 µM (inactive)	> 100 µM (inactive)	> 100 µM (inactive)	> 100 µM (inactive)	> 100 µM (inactive)	> 100 µM (inactive)	> 100 µM (inactive)	> 100 µM (inactive)		> 100 µM (inactive)	
CCOC(=O)c1sc2nc1CSc1sc(=S)sc1SCc1nc(sc1C(=O)OCC)-c1nc(c(C(=O)OCC)s1)CSc1sc(=S)sc1SCc1nc-2sc1C(=O)OCC	> 10 µM (inactive)	> 10 µM (inactive)	> 10 µM (inactive)	> 10 µM (inactive)	> 10 µM (inactive)	> 10 µM (inactive)	> 10 µM (inactive)	> 10 µM (inactive)	> 10 µM (inactive)	> 10 µM (inactive)	> 10 µM (inactive)	> 10 µM (inactive)		> 10 µM (inactive)		> 10 µM (inactive)	> 10 µM (inactive)	> 10 µM (inactive)	> 10 µM (inactive)	> 10 µM (inactive)
CCC(=O)Nc1ccc(/N=N/N(C)C)cc1	6.64 µM (inactive)	> 100 µM (inactive)	> 100 µM (inactive)	63.4 µM (inactive)		> 100 µM (inactive)	> 100 µM (inactive)	> 100 µM (inactive)	2.87 µM (inactive)	> 100 µM (inactive)	> 100 µM (inactive)	> 100 µM (inactive)	> 100 µM (inactive)	> 100 µM (inactive)	> 100 µM (inactive)	42.8 µM (inactive)	> 100 µM (inactive)	14.4 µM (inactive)	> 100 µM (inactive)	
CC(=O)C1=C(C)O[C@@H]2O[C@H](COCc3ccccc3)[C@@H](OCc3ccccc3)[C@H](O)[C@@H]2S1	5.9 µM (inactive)	21.8 µM (inactive)	23.3 µM (inactive)	22.2 µM (inactive)	0.855 µM (active)	38 µM (inactive)	20.8 µM (inactive)	19 µM (inactive)	21.1 µM (inactive)	25.1 µM (inactive)	20.4 µM (inactive)	24.8 µM (inactive)	20.4 µM (inactive)		18.8 µM (inactive)	16.4 µM (inactive)	15.2 µM (inactive)	15 µM (inactive)	25.1 µM (inactive)	22 µM (inactive)
O=C1C=C(N2CCCC2)C(=O)c2c(O)ccc(O)c21	> 10 µM (inactive)	> 10 µM (inactive)	> 10 µM (inactive)		1.71 µM (inactive)	> 10 µM (inactive)			> 10 µM (inactive)	> 10 µM (inactive)	> 10 µM (inactive)	> 10 µM (inactive)	6.32 µM (inactive)	9.57 µM (inactive)	> 10 µM (inactive)	4.52 µM (inactive)	> 10 µM (inactive)		> 10 µM (inactive)	
FC(F)(F)c1ccccc1C1SCC2=Nc3ccccc3CN21 (stereo not drawn)	16.8 µM (inactive)	19.3 µM (inactive)		12.5 µM (inactive)	26.5 µM (inactive)	10.1 µM (inactive)	28.4 µM (inactive)	22.5 µM (inactive)	16.1 µM (inactive)	12 µM (inactive)		12 µM (inactive)	12.2 µM (inactive)	13.6 µM (inactive)	12.6 µM (inactive)	21.3 µM (inactive)	15.1 µM (inactive)		18.6 µM (inactive)	21.2 µM (inactive)
Cc1ccc(N2C(=O)C(O)=C(C(=O)C(C)(C)C)C2c2ccc([N+](=O)[O-])cc2)cc1 (stereo not drawn)	18.8 µM (inactive)	11.1 µM (inactive)	16.6 µM (inactive)	15.7 µM (inactive)	26.3 µM (inactive)	19.4 µM (inactive)	26.6 µM (inactive)	17.4 µM (inactive)	11.5 µM (inactive)	26.9 µM (inactive)	24 µM (inactive)	49.2 µM (inactive)	18.2 µM (inactive)	17.7 µM (inactive)	19.1 µM (inactive)	12.3 µM (inactive)	13 µM (inactive)		20.8 µM (inactive)	7.53 µM (inactive)
